biological target: PI3K delta (Homo sapiens (Human), UniProt O00329); assay: Luciferase-coupled chemiluminescence kinase assay (KinaseGlo, ATP consumption); type: biochemical
How it was run: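 Kinase, compound and ATP (at or below KM) reacted 2 h at ambient temperature; remaining ATP detected by KinaseGlo luciferase chemiluminescence as percent ATP consumed. 10-point dose-response, curves fitted to give IC50.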

PI3K delta, sequence (O00329 whole entry): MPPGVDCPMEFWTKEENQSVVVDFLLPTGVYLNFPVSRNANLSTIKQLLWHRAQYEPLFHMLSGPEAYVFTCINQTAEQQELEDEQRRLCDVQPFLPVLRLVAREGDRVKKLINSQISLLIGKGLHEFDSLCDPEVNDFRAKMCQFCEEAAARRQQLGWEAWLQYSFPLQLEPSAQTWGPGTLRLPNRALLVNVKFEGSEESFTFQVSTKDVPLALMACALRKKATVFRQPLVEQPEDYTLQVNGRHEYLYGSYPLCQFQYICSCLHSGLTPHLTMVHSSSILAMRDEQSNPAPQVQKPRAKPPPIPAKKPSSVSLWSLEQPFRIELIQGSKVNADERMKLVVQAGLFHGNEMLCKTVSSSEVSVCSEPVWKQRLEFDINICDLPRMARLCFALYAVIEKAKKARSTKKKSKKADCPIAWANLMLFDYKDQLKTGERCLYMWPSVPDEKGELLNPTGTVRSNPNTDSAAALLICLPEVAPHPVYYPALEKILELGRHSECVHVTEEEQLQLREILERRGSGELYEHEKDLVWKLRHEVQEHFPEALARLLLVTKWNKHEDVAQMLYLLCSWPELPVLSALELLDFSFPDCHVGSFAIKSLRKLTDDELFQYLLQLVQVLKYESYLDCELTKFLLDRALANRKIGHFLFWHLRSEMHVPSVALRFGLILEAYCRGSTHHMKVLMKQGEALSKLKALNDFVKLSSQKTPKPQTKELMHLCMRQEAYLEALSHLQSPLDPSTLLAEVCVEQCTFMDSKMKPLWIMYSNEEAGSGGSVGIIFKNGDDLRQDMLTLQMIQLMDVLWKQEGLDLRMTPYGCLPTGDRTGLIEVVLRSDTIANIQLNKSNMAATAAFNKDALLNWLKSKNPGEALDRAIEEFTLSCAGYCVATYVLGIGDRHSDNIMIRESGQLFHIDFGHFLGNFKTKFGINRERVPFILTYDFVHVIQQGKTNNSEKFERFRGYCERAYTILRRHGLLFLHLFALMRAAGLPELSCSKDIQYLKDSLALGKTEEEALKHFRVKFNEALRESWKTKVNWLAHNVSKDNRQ
PI3K delta, sequence (P27986 whole entry partner): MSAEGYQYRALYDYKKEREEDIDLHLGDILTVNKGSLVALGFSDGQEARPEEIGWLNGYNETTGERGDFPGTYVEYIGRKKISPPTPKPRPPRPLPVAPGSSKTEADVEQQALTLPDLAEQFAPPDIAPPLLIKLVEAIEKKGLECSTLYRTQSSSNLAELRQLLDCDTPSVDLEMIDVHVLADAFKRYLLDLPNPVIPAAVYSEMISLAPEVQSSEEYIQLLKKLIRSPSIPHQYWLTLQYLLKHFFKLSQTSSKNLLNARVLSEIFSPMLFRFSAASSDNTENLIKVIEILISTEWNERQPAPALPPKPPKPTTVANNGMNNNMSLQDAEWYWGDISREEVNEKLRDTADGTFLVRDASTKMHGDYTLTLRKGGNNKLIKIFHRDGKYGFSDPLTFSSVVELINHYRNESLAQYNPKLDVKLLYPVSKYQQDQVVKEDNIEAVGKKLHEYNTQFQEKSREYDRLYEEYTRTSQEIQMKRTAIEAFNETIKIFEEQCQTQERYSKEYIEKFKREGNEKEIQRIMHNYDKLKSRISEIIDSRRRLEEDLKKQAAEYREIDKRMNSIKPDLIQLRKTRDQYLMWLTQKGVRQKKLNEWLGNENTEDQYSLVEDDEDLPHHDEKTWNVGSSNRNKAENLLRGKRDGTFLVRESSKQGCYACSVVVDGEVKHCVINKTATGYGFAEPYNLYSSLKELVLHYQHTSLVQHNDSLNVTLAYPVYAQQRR

Row | SMILES | IC50 [nM]
1 | Cc1ccccc1-n1c(CCN)nc2cccc(C)c2c1=O [Compound 157, 2-(2-aminoethyl)-5-methyl-3-(2-methylphenyl)quinazolin-4(3H)-one] | 500 to 1500
2 | Cc1ccccc1-n1c(CSc2ncnc3nc[nH]c23)nc2ccsc2c1=O [Compound 163, 3-(2-methylphenyl)-2-[(7H-purin-6-ylthio)methyl]thieno[3,2-d]pyrimidin-4(3H)-one] | 500 to 1500
3 | Cc1nc(C)n(CC(=O)N(C)CCN(C)c2nc3c(C)cccc3cc2CNC(=O)c2nccnc2N)n1 [Compound 43, 3-amino-N-({2-[(2-{[(3,5-dimethyl-1H-1,2,4-triazol-1-yl)acetyl](methyl)amino}ethyl)(methyl)amino]-8-methylquinolin-3-yl}methyl)pyrazine-2-carboxamide] | < 50
4 | Cc1ccccc1-c1nc2c(C)cccc2cc1CSc1ncnc2[nH]cnc12 [Compound 188, 8-methyl-2-(2-methylphenyl)-3-[(9H-purin-6-ylthio)methyl]quinoline] | 50 to 250
5 | Cc1cccc2cc(Cn3cnc4c(N)ncnc43)c(N(C)CC3CCN(C)CC3)nc12 [Compound 4, 3-[(6-amino-9H-purin-9-yl)methyl]-N,8-dimethyl-N-[(1-methylpiperidin-4-yl)methyl]quinolin-2-amine] | < 50
6 | Cc1ccccc1-n1c(CNC(=O)c2nc(Br)cnc2N)nc2cccc(C)c2c1=O [Compound 160, 3-amino-6-bromo-N-{[5-methyl-3-(2-methylphenyl)-4-oxo-3,4-dihydroquinazolin-2-yl]methyl}pyrazine-2-carboxamide] | 500 to 1500
7 | Cc1cccc2cc(CNC(=O)c3nccnc3N)c(N3CCCN(C(=O)Cn4cnc5ccccc54)CC3)nc12 [Compound 53, 3-amino-N-({2-[4-(1H-benzimidazol-1-ylacetyl)-1,4-diazepan-1-yl]-8-methylquinolin-3-yl}methyl)pyrazine-2-carboxamide] | 500 to 1500
8 | Cc1ccccc1-c1cc2ccccc2nc1CNC(=O)c1ncc(N2CCOCC2)nc1N [Compound 105, 3-amino-N-{[3-(2-methylphenyl)quinolin-2-yl]methyl}-5-morpholin-4-ylpyrazine-2-carboxamide] | 500 to 1500
9 | Cc1ccccc1-n1c(CNC(=O)c2ccnc(N)c2)nc2cccc(C)c2c1=O [Compound 174, 2-amino-N-{[5-methyl-3-(2-methylphenyl)-4-oxo-3,4-dihydroquinazolin-2-yl]methyl}pyridine-4-carboxamide] | 500 to 1500
10 | Cc1cccc2cc(CNC(=O)c3nccnc3N)c(N(C)CCN(C)C(=O)Cn3ccnc3C)nc12 [Compound 86, 3-amino-N-({8-methyl-2-[methyl(2-{methyl[(2-methyl-1H-imidazol-1-yl)acetyl]amino}ethyl)amino]quinolin-3-yl}methyl)pyrazine-2-carboxamide] | < 50
11 | Cc1cccc2cc(CNc3ncnc4[nH]cnc34)c(N3CCN4CCCCC4C3)nc12 (centres unmarked) [Compound 12, N-{[8-methyl-2-(octahydro-2H-pyrido[1,2-a]pyrazin-2-yl)quinolin-3-yl]methyl}-9H-purin-6-amine] | < 50
12 | Cc1ccccc1-n1c(CNC(=O)c2ncccc2N)nc2cccc(C)c2c1=O [Compound 161, 3-amino-N-{[5-methyl-3-(2-methylphenyl)-4-oxo-3,4-dihydroquinazolin-2-yl]methyl}pyridine-2-carboxamide] | 500 to 1500
13 | Cc1cccc2cc(CNC(=O)c3nccnc3N)c(N(C)CCO)nc12 [Compound 121, 3-amino-N-({2-[(2-hydroxyethyl)(methyl)amino]-8-methylquinolin-3-yl}methyl)pyrazine-2-carboxamide] | 50 to 250
14 | COc1ccc(OC(C)c2cc3cccc(C)c3nc2-c2ccccc2Cl)cc1 (centres unmarked) [Compound 17, 2-(2-chlorophenyl)-8-methyl-3-(1-{[4-(methyloxy)phenyl]oxy}ethyl)quinoline] | 500 to 1500
15 | COCCOc1cccc(-c2nc3c(C)cccc3cc2Cn2cnc3c(N)ncnc32)c1 [Compound 184, 9-{[8-methyl-2-(3-{[2-(methyloxy)ethyl]oxy}phenyl)quinolin-3-yl]methyl}-9H-purin-6-amine] | 250 to 500
16 | Cc1ccccc1-n1c(CNC(=O)c2nccnc2N)nc2cccc(C)c2c1=O [Compound 175, 3-amino-N-{[5-methyl-3-(2-methylphenyl)-4-oxo-3,4-dihydroquinazolin-2-yl]methyl}pyrazine-2-carboxamide] | < 50
17 | COc1ccc(OCc2cc3cccc(C)c3nc2-c2ccccc2Cl)cc1 [Compound 16, 2-(2-chlorophenyl)-8-methyl-3-({[4-(methyloxy)phenyl]oxy}methyl)quinoline] | 500 to 1500

The next lines start with the values.

Row | IC50 [nM] | SMILES
18 | 50 to 250 | Cc1cccc2cc(Cn3cnc4c(N)ncnc43)c(N3CCN(C)CC3)nc12 [Compound 173, 9-{[8-methyl-2-(4-methylpiperazin-1-yl)quinolin-3-yl]methyl}-9H-purin-6-amine]
19 | < 50 | Cc1cccc2cc(CNC(=O)c3nccnc3N)c(N(C)CC3CCCCN3C)nc12 (centres unmarked) [Compound 39, 3-amino-N-[(8-methyl-2-{methyl[(1-methylpiperidin-2-yl)methyl]amino}quinolin-3-yl)methyl]pyrazine-2-carboxamide]
20 | 500 to 1500 | Cc1ccccc1-n1c(CNC(=O)c2nccnc2N2CCOCC2)nc2cccc(C)c2c1=O [Compound 151]
21 | 500 to 1500 | CNCCN(C)c1nc2c(C)cccc2cc1COc1ccc(OC)cc1 [Compound 23, N,N′-dimethyl-N-[8-methyl-3-({[4-(methyloxy)phenyl]oxy}methyl)quinolin-2-yl]ethane-1,2-diamine]
22 | < 50 | Cc1cccc2cc(CNc3ncnc4[nH]cnc34)c(N(C)CC3CCCCN3C)nc12 (centres unmarked) [Compound 38, N,8-dimethyl-N-[(1-methylpiperidin-2-yl)methyl]-3-[(9H-purin-6-ylamino)methyl]quinolin-2-amine]
23 | 50 to 250 | Cc1cccc2cc(Cn3cnc4c(N)ncnc43)c(-c3ccccc3C(F)(F)F)nc12 [Compound 182, 9-({8-methyl-2-[2-(trifluoromethyl)phenyl]quinolin-3-yl}methyl)-9H-purin-6-amine]
24 | 500 to 1500 | Cc1cccc2cc(CNC(=O)c3nccnc3N)c(N3CCC(N(C)C)CC3)nc12 [Compound 127, 3-amino-N-({2-[4-(dimethylamino)piperidin-1-yl]-8-methylquinolin-3-yl}methyl)pyrazine-2-carboxamide]
25 | < 50 | Cc1ccccc1-c1cc2ccccc2nc1C(C)n1nc(I)c2c(N)ncnc21 (centres unmarked) [Compound 117, 3-iodo-1-{1-[3-(2-methylphenyl)quinolin-2-yl]ethyl}-1H-pyrazolo[3,4-d]pyrimidin-4-amine]
26 | 250 to 500 | COc1cccc(-c2nc3c(C)cccc3cc2Cn2cnc3c(N)ncnc32)c1 [Compound 185, 9-({8-methyl-2-[3-(methyloxy)phenyl]quinolin-3-yl}methyl)-9H-purin-6-amine]
27 | 500 to 1500 | Cc1cccc2cc(CNC(=O)c3nccnc3N)c(NCCc3cccnc3)nc12 [Compound 97, 3-amino-N-({8-methyl-2-[(2-pyridin-3-ylethyl)amino]quinolin-3-yl}methyl)pyrazine-2-carboxamide]
28 | < 50 | Cc1cccc2cc(Cn3cnc4c(N)ncnc43)c(N(C)CCN(C)C(=O)Cn3cccn3)nc12 [Compound 28, N-{2-[{3-[(6-amino-9H-purin-9-yl)methyl]-8-methylquinolin-2-yl}(methyl)amino]ethyl}-N-methyl-2-(1H-pyrazol-1-yl)acetamide]
29 | < 50 | Cc1ccccc1-c1cc2c(C)cccc2nc1Cn1nc(I)c2c(N)ncnc21 [Compound 119, 3-iodo-1-{[5-methyl-3-(2-methylphenyl)quinolin-2-yl]methyl}-1H-pyrazolo[3,4-d]pyrimidin-4-amine]
30 | < 50 | Cc1cccc2cc(Cn3cnc4c(N)ncnc43)c(N(C)CCN(C)C(=O)Cn3ccnn3)nc12 [Compound 34, N-{2-[{3-[(6-amino-9H-purin-9-yl)methyl]-8-methylquinolin-2-yl}(methyl)amino]ethyl}-N-methyl-2-(1H-1,2,3-triazol-1-yl)acetamide]
31 | 250 to 500 | Cc1cccc2cc(CNC(=O)c3nccnc3N)c(N3CCCNCC3)nc12 [Compound 139, 3-amino-N-{[2-(1,4-diazepan-1-yl)-8-methylquinolin-3-yl]methyl}pyrazine-2-carboxamide]
32 | 500 to 1500 | Cc1ccccc1-c1c(Cn2cnc3ncnc(N)c32)nc2ccccc2c1C [Compound 169, 7-{[4-methyl-3-(2-methylphenyl)quinolin-2-yl]methyl}-7H-purin-6-amine]
33 | < 50 | Cc1cccc2cc(CNC(=O)c3nccnc3N)c(N(C)CC3CCN(C)CC3)nc12 [Compound 31, 3-amino-N-[(8-methyl-2-{methyl[(1-methylpiperidin-4-yl)methyl]amino}quinolin-3-yl)methyl]pyrazine-2-carboxamide]
34 | < 50 | Cc1cccc2cc(CNc3ncnc4[nH]cnc34)c(N(C)CC3CCN(C)CC3)nc12 [Compound 33, N,8-dimethyl-N-[(1-methylpiperidin-4-yl)methyl]-3-[(9H-purin-6-ylamino)methyl]quinolin-2-amine]
35 | 500 to 1500 | Cc1cccc2cc(Cn3cnc4c(N)ncnc43)c(NS(=O)(=O)c3ccccc3)nc12 [Compound 156, N-{3-[(6-amino-9H-purin-9-yl)methyl]-8-methylquinolin-2-yl}benzenesulfonamide]
36 | < 50 | CCCN1CCC[C@@H]1C(=O)N(C)CCN(C)c1nc2c(C)cccc2cc1CNC(=O)c1nccnc1N [Compound 67, 3-amino-N-{[8-methyl-2-(methyl{2-[methyl(1-propyl-D-prolyl)amino]ethyl}amino)quinolin-3-yl]methyl}pyrazine-2-carboxamide]
37 | 250 to 500 | CN(C)C(=O)c1ccccc1-c1cc2ccccc2nc1CNC(=O)c1nccnc1N [Compound 56, 3-amino-N-[(3-{2-[(dimethylamino)carbonyl]phenyl}quinolin-2-yl)methyl]pyrazine-2-carboxamide]
38 | 250 to 500 | Nc1nccnc1C(=O)NCc1nc2ccccc2cc1-c1ccccc1CN1CCOCC1 [Compound 70, 3-amino-N-({3-[2-(morpholin-4-ylmethyl)phenyl]quinolin-2-yl}methyl)pyrazine-2-carboxamide]
